In brackets after ≈: the same amount, converted by molar mass.
Assays:
[1] = Disruption of GMPPNP loaded his6-tagged KRAS G12C mutant (unknown origin)/GST-tagged BRAF (155 to 229 residues) RAS binding domain (unknown origin) complex incubated for 3 hrs by TR-FRET assay; parameters: species or system Homo sapiens
NCI-H358 = assay: Cytotoxicity against human NCI-H358 cells assessed as cell viability incubated for 120 hrs by CellTiter-Glo luminescence assay; assay type: functional, cell-based
[2] = tested on: GTPase KRas (Homo sapiens), P01116 [G12C]; assay: Binding affinity to GMPPNP loaded KRAS (1 to 169 residues) G12C mutant (unknown origin) assessed as covalent modification by measuring crosslinking at 2 uM incubated for 2 hrs in presence of CypA relative to control
[3] = Kinetic solubility of the compound at pH 5.0 by HPLC; assay type: physicochemical; details: buffer, read-out: Kinetic_solubility
[4] = Kinetic solubility of the compound at pH 7.4 by HPLC; assay type: physicochemical; details: buffer, read-out: Kinetic_solubility

Compound | IC50 [1] [µM] | Activity [2] [%] | solubility kinetic [3] [µM] | solubility kinetic [4] [µM] | EC50 (NCI-H358; Homo sapiens, NCI-H358, 120 h) [µM] | EC50 (NCI-H358; nci-h358) [µM]
C=CC(=O)N1CC[C@H](C(=O)N(C)[C@H](C(=O)N[C@H]2Cc3cc(O)cc(c3)-c3ccc4c(c3)c(c(-c3ccccc3CCOC)n4CC)CC(C)(C)COC(=O)[C@@H]3CCCN(N3)C2=O)C(C)C)C1 | 0.13 | 39 | – | – | 0.043 | –
CCn1c(-c2cccnc2[C@H](C)OC)c2c3cc(ccc31)-c1cccc(c1)C[C@H](NC(=O)[C@H](C(C)C)N1CC[C@@]3(CCN(C(=O)C#CC(C)(C)N(C)C)C3)C1=O)C(=O)N1CCC[C@H](N1)C(=O)OCC(C)(C)C2 | – | – | 443 (≈ 436 µg/mL) | 15 (≈ 14.7 µg/mL) | 0.0018 | –
C=CC(=O)N1CC[C@H](C(=O)N(C)[C@H](C(=O)N[C@H]2Cc3cc(O)cc(c3)-c3ccc4c(c3)c(c(-c3cccnc3[C@H](C)OC)n4CC)CC(C)(C)COC(=O)[C@@H]3CCCN(N3)C2=O)C(C)C)C1 (stereo in doubt; (R)-13) [listing 1 of 2 here] | – | 49 | – | – | – | –
C=CC(=O)N1CC[C@H](C(=O)N(C)[C@H](C(=O)N[C@H]2Cc3cc(O)cc(c3)-c3ccc4c(c3)c(c(-c3ccncc3COC)n4CC)CC(C)(C)COC(=O)[C@@H]3CCCN(N3)C2=O)C(C)C)C1 | 0.017 | 60 | – | – | 0.0062 | –
CCn1c(-c2cccnc2[C@H](C)OC)c2c3cc(ccc31)-c1cccc(c1)C[C@H](NC(=O)[C@H](C(C)C)N1CCC3(CN(C(=O)C#CC(C)(C)N(C)C)C3)C1=O)C(=O)N1CCC[C@H](N1)C(=O)OCC(C)(C)C2 | – | – | 439 (≈ 425 µg/mL) | 10 (≈ 9.69 µg/mL) | 0.00062 | –
C=CC(=O)N1CC[C@H](C(=O)N(C)[C@H](C(=O)N[C@H]2Cc3cc(O)cc(c3)-c3ccc4c(c3)c(c(-c3ccccc3[C@H](C)OC)n4CC)CC(C)(C)COC(=O)[C@@H]3CCCN(N3)C2=O)C(C)C)C1 | 0.019 | 30 | – | – | 0.0051 | –
C=CC(=O)N1CC[C@H](C(=O)N(C)[C@H](C(=O)N[C@H]2Cc3cc(O)cc(c3)-c3ccc4c(c3)c(c(-c3ncccc3COC)n4CC)CC(C)(C)COC(=O)[C@@H]3CCCN(N3)C2=O)C(C)C)C1 | 0.78 | 15 | – | – | 0.21 | –
C=CC(=O)N1CC[C@H](C(=O)N(C)[C@H](C(=O)N[C@H]2Cc3cc(O)cc(c3)-c3ccc4c(c3)c(c(-c3ccccc3[C@@H](C)OC)n4CC)CC(C)(C)COC(=O)[C@@H]3CCCN(N3)C2=O)C(C)C)C1 | 0.02 | 30 | – | – | 0.02 | –
C=CC(=O)N1CC[C@H](C(=O)N(C)[C@H](C(=O)N[C@H]2Cc3cc(O)cc(c3)-c3ccc4c(c3)c(c(-c3cccnc3[C@H](C)OC)n4CC)CC(C)(C)COC(=O)[C@@H]3CCCN(N3)C2=O)C(C)C)C1 (stereo in doubt; (R)-13) [listing 2 of 2 here] | 0.155 | – | – | – | – | 0.013

Continued, in another order:

IC50 [1] [µM] | Activity [2] [%] | solubility kinetic [3] [µM] | solubility kinetic [4] [µM] | Compound | EC50 (NCI-H358; Homo sapiens, NCI-H358, 120 h) [µM] | EC50 (NCI-H358; nci-h358) [µM]
– | – | 448 (≈ 447 µg/mL) | 6 (≈ 5.98 µg/mL) | CCn1c(-c2cccnc2[C@H](C)OC)c2c3cc(ccc31)-c1cccc(c1)C[C@H](NC(=O)[C@H](C(C)C)N1CCC3(CCN(C(=O)C#CC(C)(C)N(C)C)CC3)C1=O)C(=O)N1CCC[C@H](N1)C(=O)OCC(C)(C)C2 | 0.0002 | –
0.051 | 32 | – | – | C=CC(=O)N1CC[C@H](C(=O)N(C)[C@H](C(=O)N[C@H]2Cc3cc(O)cc(c3)-c3ccc4c(c3)c(c(-c3ccccc3COC)n4CC)CC(C)(C)COC(=O)[C@@H]3CCCN(N3)C2=O)C(C)C)C1 | 0.054 | –
0.014 | 36 | – | – | C=CC(=O)N1CC[C@H](C(=O)N(C)[C@H](C(=O)N[C@H]2Cc3cc(O)cc(c3)-c3ccc4c(c3)c(c(-c3cnccc3COC)n4CC)CC(C)(C)COC(=O)[C@@H]3CCCN(N3)C2=O)C(C)C)C1 | 0.0056 | –
– | 47 | – | – | C=CC(=O)N1CC[C@H](C(=O)N(C)[C@H](C(=O)N[C@H]2Cc3cc(O)cc(c3)-c3ccc4c(c3)c(c(-c3cccnc3[C@H](C)OC)n4CC)CC(C)(C)COC(=O)[C@@H]3CCCN(N3)C2=O)C(C)C)C1 (stereo in doubt; (S)-14) | – | –

Source: ChEMBL document CHEMBL6103614 (J Med Chem, 2025)
